Data as given in ChEMBL document CHEMBL3885881, “DrugMatrix”.

Species: Rattus norvegicus
Assay: DrugMatrix - Regimen: Daily Repeat
Type: toxicity, organism-based, Sprague-Dawley
Set-up: regimen Daily Repeat, gender Male, age 6-8 weeks
Settings: in vivo, po, route oral GAVAGE, vehicle .5 % CMC; for ABSOLUTE BASOPHIL / ABSOLUTE EOSINOPHIL / ABSOLUTE LYMPHOCYTE / ABSOLUTE MONOCYTE / ABSOLUTE SEGMENTED NEUTROPHIL / BASOPHIL / EOSINOPHIL / HEMATOCRIT / LEUKOCYTE COUNT / LYMPHOCYTE / MEAN CORPUSCULAR HEMOGLOBIN / MEAN CORPUSCULAR HEMOGLOBIN CONCENTRATION / MEAN CORPUSCULAR VOLUME / MONOCYTE / NEUTROPHIL / NUCLEATED RED BLOOD CELLS / PLATELET COUNT: tissue Blood; for ALANINE AMINOTRANSFERASE / ALBUMIN / ALKALINE PHOSPHATASE / ASPARTATE AMINOTRANSFERASE / BLOOD UREA NITROGEN / CARBON DIOXIDE / CHLORIDE / CHOLESTEROL / CREATININE / GLUCOSE / LACTATE DEHYDROGENASE / LIPASE / PHOSPHORUS / SODIUM / TOTAL BILIRUBIN / TOTAL PROTEIN / URIC ACID: tissue Plasma
[1] = 23 mg/kg, 120 h, dose level High, time 5 day
[2] = […], 72 h, dose 2.5 mg/Kg, dose level Low, time 3 day
[3] = […], 120 h, dose 2.5 mg/Kg, dose level Low, time 5 day

## Cc1cc2c(s1)Nc1ccccc1N=C2N1CCN(C)CC1 [OLANZAPINE]
[1]
  ABSOLUTE BASOPHIL: 0 CELLS/uL
  ABSOLUTE EOSINOPHIL: 52 CELLS/uL
  ABSOLUTE LYMPHOCYTE: 13243.33 CELLS/uL
  ABSOLUTE MONOCYTE: 98.33 CELLS/uL
  ABSOLUTE SEGMENTED NEUTROPHIL: 1106.33 CELLS/uL
  BASOPHIL: 0%
  EOSINOPHIL: 0.33%
  HEMATOCRIT: 38.23%
  LEUKOCYTE COUNT: 14.5 x10E3/uL
  LYMPHOCYTE: 91.33%
  MEAN CORPUSCULAR HEMOGLOBIN: 24.67 pg
  MEAN CORPUSCULAR HEMOGLOBIN CONCENTRATION: 39.5 G/DL
  MEAN CORPUSCULAR VOLUME: 62.5 fL
  MONOCYTE: 0.67%
  NEUTROPHIL: 7.67%
  NUCLEATED RED BLOOD CELLS: 0 /100WBC
  PLATELET COUNT: 1008.67 x10E3/uL
  ALANINE AMINOTRANSFERASE: 50 u/L
  ALBUMIN: 4.4 G/DL
  ALKALINE PHOSPHATASE: 282.67 u/L
  ASPARTATE AMINOTRANSFERASE: 108.67 u/L
  BLOOD UREA NITROGEN: 22.33 mg/dL
  CARBON DIOXIDE: 27.33 mmol/L
  CHLORIDE: 104.33 MEQ/L
  CHOLESTEROL: 78.33 mg/dL
  CREATININE: 0.26 mg/dL
  GLUCOSE: 150.33 mg/dL
  LACTATE DEHYDROGENASE: 306 u/L
  LIPASE: 9.33 u/L
  PHOSPHORUS: 11.63 mg/dL
  SODIUM: 146.17 MEQ/L
  TOTAL BILIRUBIN: 0.27 mg/dL
  TOTAL PROTEIN: 6.1 G/DL
  URIC ACID: 1.4 mg/dL
[2]
  ABSOLUTE BASOPHIL: 0 CELLS/uL
  ABSOLUTE EOSINOPHIL: 116 CELLS/uL
  ABSOLUTE LYMPHOCYTE: 13788.67 CELLS/uL
  ABSOLUTE MONOCYTE: 239.33 CELLS/uL
  ABSOLUTE SEGMENTED NEUTROPHIL: 1189.33 CELLS/uL
  BASOPHIL: 0%
  EOSINOPHIL: 1%
  HEMATOCRIT: 35.03%
  LEUKOCYTE COUNT: 15.33 x10E3/uL
  LYMPHOCYTE: 90%
  MEAN CORPUSCULAR HEMOGLOBIN: 24.27 pg
  MEAN CORPUSCULAR HEMOGLOBIN CONCENTRATION: 38.63 G/DL
  MEAN CORPUSCULAR VOLUME: 62.87 fL
  MONOCYTE: 1.67%
  NEUTROPHIL: 7.33%
  NUCLEATED RED BLOOD CELLS: 0 /100WBC
  PLATELET COUNT: 1228.33 x10E3/uL
  ALANINE AMINOTRANSFERASE: 53.33 u/L
  ALBUMIN: 4.17 G/DL
  ALKALINE PHOSPHATASE: 352.67 u/L
  ASPARTATE AMINOTRANSFERASE: 94.33 u/L
  BLOOD UREA NITROGEN: 18 mg/dL
  CARBON DIOXIDE: 26.67 mmol/L
  CHLORIDE: 101 MEQ/L
  CHOLESTEROL: 73.67 mg/dL
  CREATININE: 0.19 mg/dL
  GLUCOSE: 159.67 mg/dL
  LACTATE DEHYDROGENASE: 472.67 u/L
  LIPASE: 10.33 u/L
  PHOSPHORUS: 12.4 mg/dL
  SODIUM: 143.67 MEQ/L
  TOTAL BILIRUBIN: 0.23 mg/dL
  TOTAL PROTEIN: 5.97 G/DL
  URIC ACID: 1.73 mg/dL
[3]
  ABSOLUTE BASOPHIL: 0 CELLS/uL
  ABSOLUTE EOSINOPHIL: 0 CELLS/uL
  ABSOLUTE LYMPHOCYTE: 12300.67 CELLS/uL
  ABSOLUTE MONOCYTE: 35.33 CELLS/uL
  ABSOLUTE SEGMENTED NEUTROPHIL: 2030.67 CELLS/uL
  BASOPHIL: 0%
  EOSINOPHIL: 0%
  HEMATOCRIT: 34.77%
  LEUKOCYTE COUNT: 14.37 x10E3/uL
  LYMPHOCYTE: 84.67%
  MEAN CORPUSCULAR HEMOGLOBIN: 25.5 pg
  MEAN CORPUSCULAR HEMOGLOBIN CONCENTRATION: 40.57 G/DL
  MEAN CORPUSCULAR VOLUME: 62.8 fL
  MONOCYTE: 0.33%
  NEUTROPHIL: 15%
  NUCLEATED RED BLOOD CELLS: 0 /100WBC
  PLATELET COUNT: 1181 x10E3/uL
  ALANINE AMINOTRANSFERASE: 50.67 u/L
  ALBUMIN: 4.2 G/DL
  ALKALINE PHOSPHATASE: 327.67 u/L
  ASPARTATE AMINOTRANSFERASE: 96.67 u/L
  BLOOD UREA NITROGEN: 18.67 mg/dL
  CARBON DIOXIDE: 24.67 mmol/L
  CHLORIDE: 101 MEQ/L
  CHOLESTEROL: 82 mg/dL
  CREATININE: 0.23 mg/dL
  GLUCOSE: 160.67 mg/dL
  LACTATE DEHYDROGENASE: 448.33 u/L
  LIPASE: 9.67 u/L
  PHOSPHORUS: 12.83 mg/dL
  SODIUM: 144.87 MEQ/L
  TOTAL BILIRUBIN: 0.27 mg/dL
  TOTAL PROTEIN: 5.9 G/DL
  URIC ACID: 1.7 mg/dL
